Source: PubChem BioAssay AID2060336 (Molecular Pharmacology Branch, DTP, NCI, 2025)

Tested on: 958767-090-R-J1-PDC spheroid growth
Assay: Anticancer human tumor 958767-090-R-J1-PDC patient-derived head and neck squamous carcinoma cell line growth inhibition [IpAb]
Settings: spheroids with HUVEC and MSC; for IC50: curve of first compound; for viability, T/C: stronger effect = lower value
Summary of the method: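 Combinations with ipatasertib or abemaciclib were tested on tumour spheroids holding HUVEC (25%) and MSC (15%) alongside 60% malignant cells. Top concentration was at or near clinical Cmax (10 microM if undefined), descending in half-log steps.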

[1] = second compound 0.01 µM, first compound 0.0316 µM
[2] = second compound 0.01 µM, first compound 0.1 µM
[3] = second compound 0.0316 µM, first compound 0.0316 µM
[4] = second compound 0.0316 µM, first compound 0.1 µM
[5] = second compound 0.1 µM, first compound 0.0316 µM
[6] = second compound 0.1 µM, first compound 0.1 µM
[7] = second compound 0.316 µM, first compound 0.0316 µM
[8] = second compound 0.316 µM, first compound 0.1 µM
[9] = second compound 1 µM, first compound 0.0316 µM
[10] = second compound 1 µM, first compound 0.1 µM
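Also: spheroids exposed to agents for 7 days.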
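For viability, T/C in this document: 100% = DMSO vehicle control wells.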

## Cn1ncc(Cl)c1-c1cc(C(=O)NC(CN)Cc2cccc(F)c2)sc1Cl (stereo not given) + CCN1CCN(Cc2ccc(Nc3ncc(F)c(-c4cc(F)c5nc(C)n(C(C)C)c5c4)n3)nc2)CC1
Second compound 0.01 µM
  IC50: 786 nM
Second compound 0.0316 µM
  IC50: 647 nM
Second compound 0.1 µM
  IC50: 614 nM
Second compound 0.316 µM
  IC50: 1080 nM
Second compound 1 µM
  IC50: 818 nM
[1]
  viability, T/C: 89.7%
[2]
  viability, T/C: 76.1%
Second compound 0.01 µM, first compound 0.316 µM
  viability, T/C: 58.8%
Second compound 0.01 µM, first compound 1 µM
  viability, T/C: 45.4%
Second compound 0.01 µM, first compound 3.16 µM
  viability, T/C: 33.5%
Second compound 0.01 µM, first compound 10 µM
  viability, T/C: 0.14%
[3]
  viability, T/C: 75.1%
[4]
  viability, T/C: 74.5%
Second compound 0.0316 µM, first compound 0.316 µM
  viability, T/C: 62.6%
Second compound 0.0316 µM, first compound 1 µM
  viability, T/C: 38.3%
Second compound 0.0316 µM, first compound 3.16 µM
  viability, T/C: 25.5%
Second compound 0.0316 µM, first compound 10 µM
  viability, T/C: 0.15%
[5]
  viability, T/C: 73.2%
[6]
  viability, T/C: 65.9%
Second compound 0.1 µM, first compound 0.316 µM
  viability, T/C: 51.5%
Second compound 0.1 µM, first compound 1 µM
  viability, T/C: 46.1%
Second compound 0.1 µM, first compound 3.16 µM
  viability, T/C: 30.3%
Second compound 0.1 µM, first compound 10 µM
  viability, T/C: 0.18%
[7]
  viability, T/C: 62.7%
[8]
  viability, T/C: 46.6%
Second compound 0.316 µM, first compound 0.316 µM
  viability, T/C: 47.1%
Second compound 0.316 µM, first compound 1 µM
  viability, T/C: 52.5%
Second compound 0.316 µM, first compound 3.16 µM
  viability, T/C: 19.7%
Second compound 0.316 µM, first compound 10 µM
  viability, T/C: 0.17%
[9]
  viability, T/C: 83.7%
[10]
  viability, T/C: 63.3%
Second compound 1 µM, first compound 0.316 µM
  viability, T/C: 62.3%
Second compound 1 µM, first compound 1 µM
  viability, T/C: 50.9%
Second compound 1 µM, first compound 3.16 µM
  viability, T/C: 27.9%
Second compound 1 µM, first compound 10 µM
  viability, T/C: 1.92%

## Cn1ncnc1[C@H]1c2n[nH]c(=O)c3cc(F)cc(c23)N[C@@H]1c1ccc(F)cc1 + CCN1CCN(Cc2ccc(Nc3ncc(F)c(-c4cc(F)c5nc(C)n(C(C)C)c5c4)n3)nc2)CC1
Second compound 0.01 µM
  IC50: > 100 nM
Second compound 0.0316 µM
  IC50: > 100 nM
Second compound 0.1 µM
  IC50: > 100 nM
Second compound 0.316 µM
  IC50: 32.2 nM
Second compound 1 µM
  IC50: > 100 nM
Second compound 0.01 µM, first compound 0.000316 µM
  viability, T/C: 90.1%
Second compound 0.01 µM, first compound 0.001 µM
  viability, T/C: 93.3%
Second compound 0.01 µM, first compound 0.00316 µM
  viability, T/C: 66.3%
Second compound 0.01 µM, first compound 0.01 µM
  viability, T/C: 84%
[1]
  viability, T/C: 75%
[2]
  viability, T/C: 66%
Second compound 0.0316 µM, first compound 0.000316 µM
  viability, T/C: 83.6%
Second compound 0.0316 µM, first compound 0.001 µM
  viability, T/C: 75.1%
Second compound 0.0316 µM, first compound 0.00316 µM
  viability, T/C: 67.8%
Second compound 0.0316 µM, first compound 0.01 µM
  viability, T/C: 46.2%
[3]
  viability, T/C: 52.8%
[4]
  viability, T/C: 67.4%
Second compound 0.1 µM, first compound 0.000316 µM
  viability, T/C: 68.8%
Second compound 0.1 µM, first compound 0.001 µM
  viability, T/C: 64.6%
Second compound 0.1 µM, first compound 0.00316 µM
  viability, T/C: 60.8%
Second compound 0.1 µM, first compound 0.01 µM
  viability, T/C: 56.6%
[5]
  viability, T/C: 50.2%
[6]
  viability, T/C: 59.4%
Second compound 0.316 µM, first compound 0.000316 µM
  viability, T/C: 59.2%
Second compound 0.316 µM, first compound 0.001 µM
  viability, T/C: 53.8%
Second compound 0.316 µM, first compound 0.00316 µM
  viability, T/C: 49.3%
Second compound 0.316 µM, first compound 0.01 µM
  viability, T/C: 54%
[7]
  viability, T/C: 56.8%
[8]
  viability, T/C: 43.4%
Second compound 1 µM, first compound 0.000316 µM
  viability, T/C: 70.8%
Second compound 1 µM, first compound 0.001 µM
  viability, T/C: 73.7%
Second compound 1 µM, first compound 0.00316 µM
  viability, T/C: 70.5%
Second compound 1 µM, first compound 0.01 µM
  viability, T/C: 60.2%
[9]
  viability, T/C: 56.6%
[10]
  viability, T/C: 58.2%
